This note sets out measurements from US20080187492A1, “Drosophila Models For Diseases Affecting Learning and Memory” (priority 2004, published 2008).

Each structure is given as a SMILES string.

Common to all, as to type: in vivo, Drosophila melanogaster
Assay [1] relates to FS (dFMR1-3+frame shifted rescue fragment) flies. The experiment in a line: Naive courtship behavior (courtship index toward virgin female), FS flies. To be noted: for naive courtship: MPEP 20 μg/ml, LY341495 400 nM in food. From the text: (§1) Learning and memory (cognitive abilities) can be examined in Drosophila by utilizing several available learning and memory paradigms. The most popular is a classical conditioning paradigm in which the flies learn to associate electric shocks with olfactory cues (Dudia et al, 1976; Davis, 1993; Tully, 1994). An alternative paradigm to study learning and memory in Drosophila is called conditioned courtship, wherein a male fly learns to modify his courtship behavior after experience with an unreceptive female; it is a multi-sensory paradigm involving associations from more then one sensory input (Siegel and Hall, 1979; for review see Hall, 1994). It is a more complex associative learning paradigm and was utilized to assay learning and memory in this article to elucidate the role of dFMR1 in learning and memory (Tompkins et al, 1980; Tompkins et al, 1982; Tompkins et al, 1983; Tompkins et al, 1984; Ackerman and Siegel, 1986). Courting male flies perform a characteristic sequence of behaviors: orienting toward and following the female, tapping her with his forelegs, vibrating one or both wings, licking her genitalia, and attempting copulation (Sturtevant, 1915; Bastock and Manning, 1955; Bastock, 1956). These behaviors are repeated with some variation until successful copulation occurs. Virgin females will generally respond by mating; however, recently mated females will be unreceptive and will not allow copulation to occur (Spieth, 1974), they display different behaviors (Bastock and Manning, 1955; Connolly and Cook, 1973) and have an altered, although somewhat overlapping, pheromonal profile (Cobb and Ferveur, 1996). The naive male will find a previously mated female to have a pheromonal repertoire that is less provocative then that of a virgin female target. A naive male paired with a mated female will initially court her, but his courtship activity soon decreases; after 1 hour of experience with the mated female, his courtship when subsequently paired with a virgin female remains depressed for 2-3 hours (Siegel and Hall, 1979). This effect is not a general suppression of all courtship activity since a male's tendency to court an immature male is not suppressed (Gailey et al, 1984). […] These behaviors are quantified as a courtship index (CI) which is defined as the percentage of time a male fly spends performing any of the six courtship steps toward a target female in a ten minute test period. A decrease in CI after training with a previously mated female is indicative of behavioral plasticity in the form of learning or memory.
Since we use female targets that are not etherized (therefore they are freely moving), and the w118 and dfmr1-3 flies may have slightly impaired visual acuity due to lack of eye pigmentation, and since visual inputs affect courtship behavior, all subsequent experiments were done utilizing only the genotypes Rescue: dfmr1-3+wild type rescue fragment, and FS: dfmr1-3+frame shifted rescue fragment. Both of these genotypes have more pigmentation and similar levels of eye pigmentation to each other. For FIGS. 4 and 5, a high concentration of MPEP (1,000 μg/ml) was used. For the remainder of the experiments the food was either control (CT) or exactly the same control food containing the appropriate concentration of MPEP (M). The position of the CT and the M are indicative of the point at which the group was on the particular food. The first letter indicates the food type that the larvae grew up on, and the second letter denotes the food type that the adult flies were placed on within four hours of eclosion, […] fresh food.
Naive males were placed in the training chamber for one hour with no female, and then placed with a virgin target female for a ten-minute interval. The naive courtship behavior was reduced by high MPEP concentration in Rescue (p<0.0001) and FS (p<0.0005) lines, and it was depressed to similar levels by high MPEP treatment in the Rescue and FS groups (FIG. 2A). […]

Assay [2] deals with Rescue (dFMR1-3+wild type rescue fragment) flies. Kind of assay: Naive courtship behavior (courtship index toward virgin female), Rescue flies. The following applies: for naive courtship: MPEP 20 μg/ml, LY341495 400 nM in food.
Description: as §1
Since we use female targets that are not etherized (therefore they are freely moving), and the w118 and dfmr1-3 flies may have slightly impaired visual acuity due to lack of eye pigmentation, and since visual inputs affect courtship behavior, all subsequent experiments were done utilizing only the genotypes Rescue: dfmr1-3+wild type rescue fragment, and FS: dfmr1-3+frame shifted rescue fragment. Both of these genotypes have more pigmentation and similar levels of eye pigmentation to each other. For FIGS. 4 and 5, a high concentration of MPEP (1,000 μg/ml) was used. For the remainder of the experiments the food was either control (CT) or exactly the same control food containing the appropriate concentration of MPEP (M). The position of the CT and the M are indicative of the point at which the group was on the particular food. The first letter indicates the food type that the larvae grew up on, and the second letter denotes the food type that the adult flies were placed on within four hours of eclosion, and for the four following days, until the day before testing when they were placed on fresh food.
In order to determine if MPEP can get into the Drosophila central nervous system (CNS) through feeding behavior, we mixed MPEP into the food at a concentration of 1,000 μg/ml ([…]). Males were raised on CT food and then placed on either CT or M food. […]

Assay [3] deals with FS flies lacking dfmr1 activity. Kind of assay: Short-term memory (60 mins) with mated female targets, FS flies. The following applies: for short-term memory, mated female target: 86 μM MPEP, 400 nM LY341495, 573 μM MPPG, 348 μM MTPG; for memory at 60 minutes post training, mated female target: 5 day old, 8.6 mM MPEP, 400 nM LY341495. How it is done:
Effects of drug treatment on short-term memory (60 mins) in flies lacking dfmr1 activity with mated female targets. Short-term (60 min.) memory was measured in Rescue and FS flies that were either fed control food or underwent various drug treatments as described below. Short-term memory was measured by placing a trained male in a holding chamber for 60 minutes (after being trained for one hour with a previously mated female), then subsequently placing him in a testing chamber with a mated female target for a ten-minute courtship interval (C.I.). This C.I. was compared to the C.I. obtained for naïve courtship of a previously mated female, i.e., C.I. during the first 10 minutes of the training session with a previously mated female. Additionally, for reference the C.I. during the last 10 minutes of the training period was also determined. Numbers of flies are indicated above each bar for all groups. The levels of significance are indicated as follows; *=p<0.05; **=p<0.005; ***=p<0.0001.
Restoration of short-term memory with mGluR antagonists. To establish that the failure to observe memory was not due to a problem with recognizing or processing the appropriate cues from the virgin female target, we used a modified version of the conditioned courtship paradigm where the male is paired with a mated female target subsequent to training (Kane et al., 1997; Joiner and Griffith, 1997; Joiner and Griffith, 1999; Kamashev et al., 1999). Again, with pharmacologic treatment it is necessary to utilize more then one compound to confirm the specificity of the target, so in this case we used four mGluR antagonists. […] It is also important to note that the robust deficit in synaptic plasticity in FS flies, with regard to memory, is a critical extension of the previous models of Fragile X syndrome in model organisms, since this is one of the most prominent aspects of the human disorder. Furthermore, we have shown that antagonism of the mGluRs can restore synaptic plasticity in the Drosophila model of Fragile X syndrome.

Where [4] appears, read: 5 day old, MPEP 200 μg/ml (86.6 μM) in development, with or without adulthood (M-M, M-CT).
The mark [5] stands for this setting: 5 day old, MPEP 1,000 μg/ml (433.0 μM) in food in adulthood (CT-M).

For the compound `N[C@](CC1c2ccccc2Oc2ccccc21)(C(=O)O)[C@H]1C[C@@H]1C(=O)O` [LY341495, (2S)-2-amino-2-[(1S,2S)-2-carboxycycloprop-1-yl]-3-(xanth-9-yl) propionic acid], in assay [1] (5 day old), the naive courtship entry is on record as “significantly increased naive courtship”. The naive courtship entry in assay [2] (5 day old) was “suppressed naive courtship”. Also, in assay [3], the “short-term memory, mated female target” value is “demonstrated restoration of short-term memory” and the “memory at 60 minutes post training, mated female target” value (“memory at 60 minutes post training” below) is given as “demonstrate memory at 60 minutes post training”.

For the compound `CC(N)(C(=O)O)c1ccc(-c2nnn[nH]2)cc1` (racemic) [MTPG, (RS)-α-methyl-4-tetrazolylphenylglycine], the naive courtship activity entry is on record as “significant increase in courtship activity” in assay [1] (5 day old adults, 573 mM MPPG (p<0.0001) or 348 μM MTPG (p<0.005)) and “significant decrease in courtship activity” in assay [2] (5 day old adults, 573 mM MPPG or 348 μM MTPG, p<0.0001 for both). Further, in assay [3], the “short-term memory, mated female target” value is given as “demonstrated restoration of short-term memory”. The “memory at 60 minutes post training” value in assay [3] was “demonstrate memory at 60 minutes post training”.

For the compound `Cc1cccc(C#Cc2ccccc2)n1` [MPEP, 2-methyl-6-(phenylethynyl)pyridine], the naive courtship activity result is “significant increase in courtship activity” in assay [1] (20-day-old, MPEP (86.6 μM) in adulthood only (CT-M)); “significant increase in courtship activity” in assay [1] (20-day-old, MPEP (86.6 μM) in development and adulthood (M-M)); “did not demonstrate an increase in naive courtship activity” in assay [1] (20-day-old, MPEP (86.6 μM) in development only (M-CT)); “courtship levels similar to CT-CT Rescue flies” in assay [1] (setting [4]); “significant increase in courtship activity” in assay [1] (5 day old, MPEP 200 μg/ml (86.6 μM) in food in adulthood only (CT-M), p<0.005); “depressed relative to CT-CT Rescue flies” in assay [2] (5 day old, MPEP 200 μg/ml (86.6 μM) in adulthood only (CT-M), p<0.0001). Also, the naive courtship activity result in assay [2] (setting [4]) is on record as “courted as vigorously as CT-CT Rescues flies”. For the same compound, the naive courtship entry in assay [1] (5 day old) is given as “significantly increased naive courtship”; in assay [2] (5 day old), “suppressed naive courtship”. For the same compound, the naive courtship behavior entry in assay [1] (setting [5]) and in assay [2] (setting [5]) was “reduced” in each case. In addition, the “short-term memory, mated female target” value in assay [3] is recorded as “demonstrated restoration of short-term memory”. Further, the “memory at 60 minutes post training” value in assay [3] is on record as “demonstrate memory at 60 minutes post training”.
